Holding throughout (type): cell-based
For test [1], the target named is 5-HT2B (Homo sapiens (Human), UniProt P41595). Put plainly: 5-HT2B agonist (IP1) assay, CHO cells (commercial). The note with it: for Emax at 10 µM: CHO, read-out: % of control agonist maximal response (5-HT2B); for EC50: IP1 agonist assay. The source says: (§1) Potency (IC50 and EC50) and efficacy values for hERG, rKOR-CHO, hMOR-CHO, h5-HT2A-HEK, h5-HT2B-CHO, h5-HT2C HEK were obtained by screening the selected compounds via commercially available assay services.

The target of test [2] is 5-HT2C (Homo sapiens (Human), UniProt P28335). Put plainly: 5-HT2C agonist (IP1) assay, HEK-293 cells (commercial). Particulars: for Emax at 10 µM: HEK293, read-out: % of control agonist maximal response (5-HT2C); for EC50: IP1 agonist assay.
Description: as §1

Test [3] addresses 5-HT2A (Homo sapiens (Human), UniProt P28223). In words: 5-HT2A agonist (IP1) assay, HEK-293 cells (commercial). Particulars: for Emax at 10 µM: HEK293, read-out: % of control agonist maximal response (5-HT2A); for EC50: IP1 agonist assay.
Description: as §1

The target of test [4] is KOR (Rattus norvegicus (Rat), UniProt P34975). In words: KOR agonist (cAMP) assay, CHO cells (commercial). The note with it: for Emax at 10 µM: read-out: % of control agonist maximal response (KOR).
Description: as §1

Where [5] appears, read: Table 2, cAMP agonist assay, rat KOR, CHO.

Like-named read-outs stand apart in the source and are kept apart here.

5-HT2B, sequence (P41595 whole entry): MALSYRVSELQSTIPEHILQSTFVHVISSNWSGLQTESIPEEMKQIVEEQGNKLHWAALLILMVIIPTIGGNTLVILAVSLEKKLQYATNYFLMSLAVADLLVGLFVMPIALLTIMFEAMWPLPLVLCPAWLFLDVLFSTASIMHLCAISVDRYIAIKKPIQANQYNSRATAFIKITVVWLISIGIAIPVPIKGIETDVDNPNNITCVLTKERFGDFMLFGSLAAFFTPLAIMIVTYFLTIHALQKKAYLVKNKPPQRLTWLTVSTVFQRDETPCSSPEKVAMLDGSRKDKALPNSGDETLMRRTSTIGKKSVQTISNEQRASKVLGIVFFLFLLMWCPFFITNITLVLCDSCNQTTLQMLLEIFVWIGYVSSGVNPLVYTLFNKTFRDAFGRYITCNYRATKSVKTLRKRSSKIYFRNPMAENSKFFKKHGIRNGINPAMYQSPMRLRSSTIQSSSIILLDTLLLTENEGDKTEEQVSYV
5-HT2C, sequence (P28335 whole entry, looked up): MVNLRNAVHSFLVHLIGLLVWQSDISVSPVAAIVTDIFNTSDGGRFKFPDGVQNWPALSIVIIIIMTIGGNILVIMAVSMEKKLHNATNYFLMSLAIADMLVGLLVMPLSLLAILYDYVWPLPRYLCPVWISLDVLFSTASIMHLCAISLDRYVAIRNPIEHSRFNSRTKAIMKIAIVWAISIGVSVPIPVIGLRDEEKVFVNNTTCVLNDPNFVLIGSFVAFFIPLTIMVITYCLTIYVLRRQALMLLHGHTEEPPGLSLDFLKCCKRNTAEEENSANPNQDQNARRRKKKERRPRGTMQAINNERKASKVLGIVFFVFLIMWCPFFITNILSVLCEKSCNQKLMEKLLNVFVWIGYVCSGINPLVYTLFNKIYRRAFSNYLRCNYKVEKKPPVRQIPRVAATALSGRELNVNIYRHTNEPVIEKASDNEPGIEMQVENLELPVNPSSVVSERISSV

What is called EC50 is the concentration that produces a half-maximal response. Low readings indicate an effect from little substance, high ones a need for much substance. For the compound `c1ccc2c3c(oc2c1)CCNCC3` [drawing 161], the Emax at 10 µM was 20% in test [1] (Table 2); 90% in test [2] (Table 2); 77% in test [3] (Table 2); 36% in test [4] (CHO, Table 2). Also, the EC50 in test [1] (Table 2) is over 10000 nM; in test [2] (Table 2), under 100 nM; in test [3] (Table 2), about 1000 nM; in test [4] (setting [5]) it was about 1200 nM.

As for `Oc1ccc2oc3c(c2c1)CCNCC3` [drawing 172], the Emax at 10 µM in test [4] (CHO, Table 5, CAMP Assay) is under 0%. In addition, the EC50 in test [4] (Table 5, CAMP Assay) is over 10000 nM.

Consider `CC1Cc2oc3ccc(O)cc3c2CCN1` (stereo not drawn) [drawing 170], for which the Emax at 10 µM came to 86% in test [2] (Table 4) and 45% in test [3] (Table 4). The EC50 is 400 nM in test [2] (Table 4) and 1900 nM in test [3] (Table 4).

`CN1CCCc2oc3ccccc3c2C1` [drawing 164]: the Emax at 10 µM in test [1] (Table 2) came to 3%; in test [2] (Table 2), 44%; in test [3] (Table 2) it was 4%; in test [4] (CHO, Table 2), 47%. In addition, the EC50 in test [1] (Table 2) is over 10000 nM; in test [2] (Table 2), about 14000 nM; in test [3] (Table 2) it was over 10000 nM; in test [4] (setting [5]), about 3000 nM.

Consider `Oc1ccc2oc3c(c2c1)CCNCC3` [drawing 169], for which the Emax at 10 µM worked out at 19% in test [1] (Table 4), 93% in test [2] (Table 4) and 72% in test [3] (Table 4). Moreover, the EC50 was over 10000 nM in test [1] (Table 4), 100 nM in test [2] (Table 4) and 600 nM in test [3] (Table 4).

As to `c1ccc2c3c(oc2c1)CCCNC3` [drawing 163], the Emax at 10 µM amounted to 22% in test [1] (Table 2); 78% in test [2] (Table 2); 26% in test [3] (Table 2); 45% in test [4] (CHO, Table 2). Besides, the EC50 in test [1] (Table 2) was over 10000 nM; in test [2] (Table 2), about 1300 nM; in test [3] (Table 2) it was about 60000 nM; in test [4] (setting [5]), about 4400 nM.
